This note sets out measurements from patent publication US5169844A, “4-substituted piperidinecarboxylic acid esters: inhibition of cholesterol absorption” (priority 1991, dated 1992).

Read-outs that look alike come from different tables or passages of the source.

Assay [1] concerns acyl-coenzyme A: cholesterol acyltransferase (ACAT). The assay is described as follows: ACAT inhibition (intracellular cholesterol esterification, procedure of Ross et al.). It is filed as cell-based. The note with it: for IC50: read-out: ACAT IC50. The text has this:
1. The ability of the compounds of this invention to inhibit acyl-coenzyme A: cholesterol acyltransferase was established by initially showing that they inhibited intracellular cholesterol esterification by subjecting them to the standard experimental test procedure of Ross et al., J. Biol. Chem. 259, 815 (1984).

The target in assay [2] is T1, cholesterol esterase (EC 3.1.1.13) from bovine pancreas (CEH) (Bos taurus, UniProt P30122).
T1 construct: purchased Sigma Company, St. Louis, Mo., U.S.A. C-1892; host or cells: bovine pancreas
T1 sequence (P30122 19-597): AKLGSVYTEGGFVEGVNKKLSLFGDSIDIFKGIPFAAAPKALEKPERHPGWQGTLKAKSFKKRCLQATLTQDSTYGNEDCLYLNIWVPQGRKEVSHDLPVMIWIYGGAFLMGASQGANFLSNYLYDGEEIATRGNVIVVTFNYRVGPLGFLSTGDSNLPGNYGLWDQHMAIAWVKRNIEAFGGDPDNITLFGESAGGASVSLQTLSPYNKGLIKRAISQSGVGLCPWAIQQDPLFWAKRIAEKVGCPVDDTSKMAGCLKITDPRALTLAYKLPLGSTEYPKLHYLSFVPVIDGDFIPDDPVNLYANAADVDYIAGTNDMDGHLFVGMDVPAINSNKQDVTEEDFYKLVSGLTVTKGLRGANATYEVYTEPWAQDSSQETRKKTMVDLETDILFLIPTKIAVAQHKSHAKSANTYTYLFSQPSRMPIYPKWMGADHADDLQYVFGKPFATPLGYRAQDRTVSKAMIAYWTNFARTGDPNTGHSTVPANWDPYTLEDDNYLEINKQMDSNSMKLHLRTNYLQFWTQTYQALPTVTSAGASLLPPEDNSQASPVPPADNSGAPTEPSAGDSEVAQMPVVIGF
In words: CEH inhibition (cholesteryl ester formation from cholesterol and oleic acid by buffered cholesterol esterase). It is filed as biochemical. As for the experimental part:
2. The ability of the compounds of this invention to inhibit the formation of cholesteryl esters and thereby interfere with and prevent assimilation of cholesterol into the lymphatic system and ultimately the blood stream was established by incubating the compounds at 37° C. with a mixture of cholesterol and oleic acid in the presence of buffered cholesterol esterase [(EC 3.1.1.13) Sigma Company, St. Louis, Mo., U.S.A., No. C-1892, from bovine pancreas] and measuring the amount of ester formed, according to the procedure of Field, J. of Lipid Research, 25 389 (1984).

For assay [3], the system named is Absorption of 14C-cholesterol in normal rat. The assay is described as follows: In vivo cholesterol absorption, oral [4-14C] cholesterol, normal rats. The note with it: read-out: Effect on Absorption of 14C-Chol., % Decrease. As to the method:
The in vivo cholesterol absorption studies were conducted in normal rats by oral administration of the compound being tested in propylene glycol and olive oil followed by oral administration of [4-^14 C] cholesterol in propylene glycol and olive oil, otherwise following the procedure of Cayen et al., J. Lipid Res. 20 162 (1979). The serum radioactivity was measured at six hours after dosing. The results of this study are reported in the following table, where available, as percent decrease compared to control and in terms of the effective dose (ED50) inhibiting fifty-percent of the absorption of the control animals.

Setting [4] is: 37° C., bovine pancreas enzyme, read-out: CEH IC50.
Setting [5] is: normal rat, oral, 6 hr, 10 mg/kg, serum radioactivity vs control.
The mark [6] stands for this setting: normal rat, oral, 6 hr, serum radioactivity vs control.

Regarding `CCCCNC(=O)OC1CCN(C(=O)Oc2ccc(Oc3ccccc3)cc2)CC1` [Example 2, 4-[[(Butylamino)carbonyl]oxy]-1-piperidinecarboxylic acid 4-phenoxyphenyl ester], in assay [1], the “ACAT % inhibition at 25 μM” value is on record as 96% and the IC50 came to 2000 nM. For the same compound, in assay [2], the IC50 worked out at 2300 nM.

For the compound `CCCCCCNC(=O)OC1CCN(C(=O)Oc2ccc(Oc3ccccc3)cc2)CC1` [Example 3, 4-[[(Hexylamino)carbonyl]oxy]-1-piperidinecarboxylic acid 4-phenoxyphenyl ester], in assay [1], the “ACAT % inhibition at 25 μM” value was 94% and the IC50 stood at 640 nM. In addition, the IC50 in assay [2] was determined as 9800 nM. Besides, the inhibition in vivo at 10 mg/kg in assay [3] (Rattus norvegicus, po, 6 h) is 85%.

For `CCCCCCCCNC(=O)OC1CCN(C(=O)Oc2ccc(Oc3ccccc3)cc2)CC1` [Example 4, 4-[[(Octylamino)carbonyl]oxy]-1-piperidinecarboxylic acid 4-phenoxyphenyl ester], in assay [1], the “ACAT % inhibition at 25 μM” value came out at 94% and the concentration for half-maximal inhibition (IC50) worked out at 820 nM. Moreover, the IC50 in assay [2] (setting [4]) is above 100000 nM. Moreover, the inhibition in vivo at 100 mg/kg in assay [3] (normal rat, oral, 6 hr, 100 mg/kg, serum radioactivity vs control) stood at 92%.

With `O=C(NC1CCCCC1)OC1CCN(C(=O)Oc2ccc(Oc3ccccc3)cc2)CC1` [Example 5, 4-[[(Cyclohexylamino)carbonyl]oxy]-1-piperidinecarboxylic acid 4-phenoxyphenyl ester], in assay [1], the “ACAT % inhibition at 25 μM” value is given as 92% and the IC50 came to 1680 nM. Besides, the IC50 in assay [2] (setting [4]) was found to be 9500 nM. Also, the inhibition in vivo at 10 mg/kg in assay [3] (setting [5]) came to 89%.

For the compound `CCCCCCCCCCCCNC(=O)OC1CCN(C(=O)Oc2ccc(Oc3ccccc3)cc2)CC1` [Example 6, 4-[[(Dodecylamino)carbonyl]oxy]-1-piperidinecarboxylic acid 4-phenoxyphenylester], in assay [1], the “ACAT % inhibition at 25 μM” value is 88% and the IC50 turned out to be 510 nM. Besides, the IC50 in assay [2] (setting [4]) stood at 16000 nM. In addition, the inhibition in vivo at 10 mg/kg in assay [3] (setting [5]) came to 57%.

Take `CCCCCCCCCCCCCCCCCCNC(=O)OC1CCN(C(=O)Oc2ccc(Oc3ccccc3)cc2)CC1` [Example 7, 4-[[(Octadecylamino)carbonyl]oxy]-1-piperidinecarboxylic acid 4-phenoxyphenyl ester]: the IC50 in assay [2] (setting [4]) is above 100000 nM. Moreover, the inhibition in vivo at 25 mg/kg in assay [3] (setting [6]) came to 28%.

Regarding `CC(C)CCCC(C)NC(=O)OC1CCN(C(=O)Oc2ccc(Oc3ccccc3)cc2)CC1` (stereo not shown) [Example 8, 4-[[[(1,5-Dimethylhexyl)amino]carbonyl]oxy]-1-piperidinecarboxylic acid 4-phenoxyphenyl ester], the IC50 in assay [2] (setting [4]) turned out to be 13000 nM.

Turning to `CC1CCN(C(=O)OC2CCN(C(=O)Oc3ccc(Oc4ccccc4)cc3)CC2)CC1` [Example 9], in assay [2] (setting [4]), the IC50 amounted to 1100 nM.

With `CCCCCCCN(Cc1ccc(CC(C)(C)C)cc1)C(=O)OC1CCN(C(=O)Oc2ccc(Oc3ccccc3)cc2)CC1` [Example 10, 4-[[[[[4-(2,2-Dimethylpropyl)phenyl]methyl]heptylamino]carbonyl]oxy]-1-piperidinecarboxylic acid 4-phenoxyphenyl ester], in assay [1], the “ACAT % inhibition at 25 μM” value is reported as 84% and the IC50 came to 3300 nM. Further, in assay [2] (setting [4]), the IC50 is above 100000 nM.

With `CNC(=O)OC1CCN(C(=O)Oc2ccc(Oc3ccccc3)cc2)CC1` [Example 11, 4-[[(Methylamino)carbonyl]oxy]-1-piperidinecarboxylic acid 4-phenoxyphenyl ester], the IC50 in assay [2] was found to be 2100 nM.

For `CCN(CC)C(=O)OC1CCN(C(=O)Oc2ccc(Oc3ccccc3)cc2)CC1` [Example 12, 4-[[(Diethylamino)carbonyl]oxy]-1-piperidinecarboxylic acid 4-phenoxyphenylester], the “ACAT % inhibition at 25 μM” value in assay [1] is given as 93%. The IC50 in assay [1] turned out to be 1370 nM; in assay [2], 11400 nM.

Take `O=C(NCCCCc1ccccc1)OC1CCN(C(=O)Oc2ccc(Oc3ccccc3)cc2)CC1` [Example 13, 4-[[[(4-Phenylbutyl)amino]carbonyl]oxy]-1-piperidinecarboxylic acid 4-phenoxyphenyl ester]: in assay [1], the “ACAT % inhibition at 25 μM” value stood at 96% and the IC50 stood at 230 nM. In addition, the IC50 in assay [2] (setting [4]) was 5000 nM. The inhibition in vivo at 10 mg/kg in assay [3] (setting [5]) was determined as 41%.

Consider `CCCCCCCC/C=C\CCCCCCCCNC(=O)OC1CCN(C(=O)Oc2ccc(Oc3ccccc3)cc2)CC1` [Example 14], for which, in assay [2] (setting [4]), the IC50 was 43000 nM. The inhibition in vivo at 25 mg/kg in assay [3] (setting [6]) is 21%.

As for `O=C(Oc1ccc(Oc2ccccc2)cc1)N1CCC(OC(=O)N2CCSCC2)CC1` [Example 15, 4-Thiomorpholinecarboxylic acid 1-[(4-phenxoyphenoxy)carbonyl]-4-piperidinyl ester], the IC50 in assay [2] (setting [4]) came to 79000 nM.

`O=C(Oc1ccc(Oc2ccccc2)cc1)N1CCC(OC(=O)N2CCC(c3ccccc3)CC2)CC1` [Example 16, 4-Phenyl-1-piperidinecarboxylic acid 1-[(4-phenoxyphenoxy)carbonyl]-4-piperidinyl ester]: in assay [1], the “ACAT % inhibition at 25 μM” value is reported as 91% and the IC50 stood at 510 nM. Also, in assay [2] (setting [4]), the IC50 came to 12000 nM. Further, the inhibition in vivo at 10 mg/kg in assay [3] (setting [5]) worked out at 48%.

Consider `O=C(NCC1CCCCC1)OC1CCN(C(=O)Oc2ccc(Oc3ccccc3)cc2)CC1` [Example 17, 4-[[[(Cyclohexylmethyl)amino]carbonyl]oxy]-1-piperidinecarboxylic acid 4-phenoxyphenyl ester], for which, in assay [1], the “ACAT % inhibition at 25 μM” value is recorded as 97% and the IC50 is 490 nM. Also, the IC50 in assay [2] (setting [4]) was 19000 nM. In addition, in assay [3] (normal rat, oral, 6 hr, 3 mg/kg, serum radioactivity vs control), the inhibition in vivo at 3 mg/kg turned out to be 68%.

In the case of `CCCCCCNC(=O)OC1CCN(C(=O)Oc2ccc(Oc3ccc(C)cc3)cc2)CC1` [Example 18, 4-[[(Hexylamino)carbonyl]oxy]-1-piperidinecarboxylic acid 4-(4-methylphenoxy)phenyl ester], in assay [2] (setting [4]), the IC50 is 2000 nM. Further, the inhibition in vivo at 10 mg/kg in assay [3] (setting [5]) stood at 25%.

Take `CCCCCCNC(=O)OC1CCN(C(=O)Oc2ccc(Oc3ccc(OC)cc3)cc2)CC1` [Example 19, 4-[[(Hexylamino)carbonyl]oxy]-1-piperidinecarboxylic acid 4-(4-methoxyphenoxy)phenyl ester]: in assay [2] (setting [4]), the IC50 was 2800 nM. Besides, the inhibition in vivo at 10 mg/kg in assay [3] (setting [5]) is 29%.
